Article PMC11682962, “The histamine analogue clobenpropit modulates IRF7 phosphorylation and interferon production by targeting CXCR4 in systemic lupus erythematosus models” (Frontiers in Immunology, 2024)
pKi: −log10 of the molar value.

Target: T1, CXCR4 (Homo sapiens, UniProt P61073)
T1 construct: Nanoluc-CXCR4
Assay: NanoBRET competition binding against CXCL12-AF647 in transfected HEK293T cells; anti-IFN effect lost with CXCR4 siRNA
Assay type: cell-based

T1 sequence (P61073 whole entry): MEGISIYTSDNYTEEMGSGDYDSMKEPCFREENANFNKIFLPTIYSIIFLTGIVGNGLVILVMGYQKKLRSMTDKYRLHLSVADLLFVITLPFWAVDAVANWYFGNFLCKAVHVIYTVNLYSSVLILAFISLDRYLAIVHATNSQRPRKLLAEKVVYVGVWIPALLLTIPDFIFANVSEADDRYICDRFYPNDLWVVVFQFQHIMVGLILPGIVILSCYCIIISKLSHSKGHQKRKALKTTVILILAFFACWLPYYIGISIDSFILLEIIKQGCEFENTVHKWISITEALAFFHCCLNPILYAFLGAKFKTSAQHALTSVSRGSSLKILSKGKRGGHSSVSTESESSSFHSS

SMILES: NC(=NCc1ccc(Cl)cc1)SCCCc1cnc[nH]1 [CB, clobenpropit]
- pKi: 4.73
